Assay results: patent US20120165319A1, “INHIBITORS OF INTERLEUKIN-1 BETA CONVERTING ENZYME” (VERTEX PHARMACEUTICALS INCORPORATED, priority 1995, published 2012)
Like-named read-outs stand apart in the source and are kept apart here.

Experiments:
[1] = system: IL-1β production, LPS-challenged mice; test: In vivo acute assay for efficacy as anti-inflammatory agent: LPS-induced IL-1β production in mice; set-up: species or system mouse; conditions: for inhibition at 50 mg/kg: Mus musculus, po, read-out: percent inhibition of IL-1β production; for inhibition at 50 mg/kg / percent inhibition of IL-1β production: LPS challenged mice, compound PO, 50 mg/kg; for Inhibition (%) of IL-1β production in LPS-challenged mice: oral, dosed at time of LPS challenge
Protocol: In Vivo Acute Assay for Efficacy as Anti-Inflammatory Agent
LPS-Induced IL-1β Production.
Efficacy of 214e and 217e was evaluated in CD1 mice (n=6 per condition) challenged with LPS (20 mg/kg IP). […] Blood was collected seven hours after LPS challenge. Serum IL-1β levels were measure by ELISA. […] Similar results were obtained in a second experiment. […] However, a clear dose response was not apparent.
Compounds 214e and 217e (50 mg/kg) were also administered by oral gavage to assess absorption.
The efficacy of analogs of 214e were also evaluated in LPS challenged mice after IP administration (FIG. 9) and PO administration (FIG. 10).
[…] The protocol is described in Example 7.

ICE = target: T1, ICE (Homo sapiens, UniProt P29466); test: Enzyme assay with UV-visible substrate (visible ICE assay, Succinyl-Tyr-Val-Ala-Asp-pNitroanilide); assay type: biochemical; conditions: Table 17
T1 sequence (P29466 120-297 limits assumed): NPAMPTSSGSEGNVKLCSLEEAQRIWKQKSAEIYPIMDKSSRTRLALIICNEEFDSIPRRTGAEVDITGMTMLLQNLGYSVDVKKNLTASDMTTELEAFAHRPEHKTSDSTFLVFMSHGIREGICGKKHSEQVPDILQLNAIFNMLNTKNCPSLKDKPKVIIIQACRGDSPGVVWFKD
T1 sequence (P29466 317-404 limits assumed): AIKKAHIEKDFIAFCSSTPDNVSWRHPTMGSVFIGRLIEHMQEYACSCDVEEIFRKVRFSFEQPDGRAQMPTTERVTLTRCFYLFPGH
How it was run: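 ICE preincubated with inhibitor in DMSO for 15 min at room temperature, then Suc-Tyr-Val-Ala-Asp-pNA added. pNA release read at 405-603 nm for 20 min at 37 °C, rate from linear fit in mOD/min. Ki and inhibition mode from fits of rates at varying inhibitor concentrations to standard kinetic equations.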

[2] = system: IL-1β, human peripheral blood mononuclear cells (PBMC); test: PBMC cell assay: IL-1β assay with human PBMC or enriched adherent mononuclear cells, LPS-stimulated; assay type: cell-based; conditions: Homo sapiens, PBMC, Table 17
How it was run: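 Buffy-coat human PBMC at 6×10^6 cells/ml, or adherent monocytes enriched by 1 h adherence (2.5−3.0×10^5 cells/well), are given 5–6 compound dilutions bracketing the ICE Ki (final DMSO 0.1%) plus LPS at a final 5 ng/ml. They are incubated 16–18 hr at 37 °C, 5% CO2, and supernatant mature IL-1β is measured by ELISA, with duplicate cultures and duplicate ELISAs.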

IL-1β, human whole blood = test: Whole blood assay for IL-1β production; assay type: cell-based; conditions: Homo sapiens, Table 17; read-out: Whole human blood IC50
How it was run: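 Human whole blood collected on Na2EDTA was treated with serially diluted compound in saline and then stimulated with LPS at 5.0 ng/ml final, for 16-18 h at 30 °C, in duplicate or triplicate. Plasma IL-1β was measured by ELISA at 1:200 dilution.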

[3] = 0 h, administered 0 h relative to time of LPS challenge
[4] = 2 h, administered −2 h relative to time of LPS challenge

Row | Ki (ICE) | IC50 (IL-1β, human whole blood) | Compound | IC50 [2] | also measured
1 |  |  | O=C(CN1C(=O)[C@@H](NC(=O)c2ccccc2)CN(C(=O)CO)c2ccccc21)N[C@H]1CC(=O)OC1OCc1ccccc1 (mixture of isomers) [Compound 695a, (3S)-2-Oxo-3-benzoylamino-5-hydroxyacetyl-N-[(2RS,3S)-benzyloxy-5-oxo-tetrahydrofuran-3-yl]-2,3,4,5-tetrahydro-1H-1,5-benzodiazepine-1-acetamide] |  | inhibition at 50 mg/kg [1, 3]: 78%; inhibition at 50 mg/kg [1, 4]: 49%
2 |  |  | CC(=O)N1C[C@H](NC(=O)c2cc(Cl)c(O)c(Cl)c2)C(=O)N(CC(=O)N[C@H]2CC(=O)OC2OCc2ccccc2)c2ccccc21 (mixture of isomers) [Compound 655, (3S)-2-Oxo-3-(3,5-dichloro-4-hydroxybenzoyl)amino-5-acetyl-N-[(2RS,3S)-benzyloxy-5-oxo-tetrahydrofuran-3-yl]-2,3,4,5-tetrahydro-1H-1,5-benzodiazepine-1-acetamide] |  | percent inhibition of IL-1β production ([1]; administered 0 h relative to time of LPS challenge): 68%; percent inhibition of IL-1β production ([1]; administered −2 h relative to time of LPS challenge): 0%
3 |  |  | CCO[C@H]1OC(=O)C[C@@H]1NC(=O)[C@@H]1CCCN2C(=O)CC[C@H](NC(=O)c3nccc4ccccc34)C(=O)N12 [Compound 412e, [1S,9S(2S,3S)]N-(2-Ethoxy-5-oxotetrahydrofuran-3-yl)-6,10-dioxo-9-(isoquinolin-1-oylamino)-1,2,3,4,7,8,9,10-octahydro-6-H-pyridazino[1,2-a][1,2]diazepine-1-carboxamide] |  | Inhibition (%) of IL-1β production in LPS-challenged mice ([1]; 10 mg/kg dose): 5%; Inhibition (%) of IL-1β production in LPS-challenged mice ([1]; 25 mg/kg dose): 17%; Inhibition (%) of IL-1β production in LPS-challenged mice ([1]; 50 mg/kg dose): 61%
4 | 11.5 nM | 1400 nM | O=C[C@H](CC(=O)O)NC(=O)CN1C(=O)[C@@H](NC(=O)c2ccc(O)cc2)CN(C(=O)CO)c2ccccc21 [Compound 691b, (3S)-3-[(3S)-2-Oxo-3-(4-hydroxybenzoyl)amino-5-hydroxyacetyl-2,3,4,5-tetrahydro-1H-1,5-benzodiazepine-1-acetylamino]-4-oxo-butyric acid] | 1900 nM | 
5 | 3 nM | 2100 nM | COc1c(C)cc(C(=O)N[C@H]2CN(C(=O)CO)c3ccccc3N(CC(=O)N[C@H](C=O)CC(=O)O)C2=O)cc1C [Compound 694, (3S)-3-[(3S)-2-Oxo-3-(3,5-dimethyl-4-methoxybenzoyl)amino-5-hydroxyacetyl-2,3,4,5-tetrahydro-1H-1,5-benzodiazepine-1-acetylamino-]4-oxo-butyric acid] | 2600 nM | 
6 | 45 nM | 20000 nM | CC(=O)N1C[C@H](NC(=O)C(=O)c2ccc3c(c2)OCO3)C(=O)N(CC(=O)N[C@H](C=O)CC(=O)O)c2ccccc21 [Compound 702] | > 5000 nM | 
7 | 5 nM | 20000 nM | CC(=O)N1C[C@H](NC(=O)C(=O)c2c[nH]c3ccccc23)C(=O)N(CC(=O)N[C@H](C=O)CC(=O)O)c2ccccc21 [Compound 703] | 1400 nM | 
8 | 30 nM | 9800 nM | COc1ccc(C(=O)C(=O)N[C@H]2CN(C(C)=O)c3ccccc3N(CC(=O)N[C@H](C=O)CC(=O)O)C2=O)cc1 [Compound 704] | 2600 nM | 
9 | 5 nM | 3200 nM | COc1ccccc1C(=O)C(=O)N[C@H]1CN(C(C)=O)c2ccccc2N(CC(=O)N[C@H](C=O)CC(=O)O)C1=O [Compound 705] | 2300 nM | 
10 | 5 nM | 5800 nM | COc1cccc(OC)c1C(=O)C(=O)N[C@H]1CN(C(C)=O)c2ccccc2N(CC(=O)N[C@H](C=O)CC(=O)O)C1=O [Compound 706] | 2400 nM | 
11 | 10 nM | 14000 nM | CC(=O)N1C[C@H](NC(=O)C(=O)c2c(C)cc(C)cc2C)C(=O)N(CC(=O)N[C@H](C=O)CC(=O)O)c2ccccc21 [Compound 709] | 2100 nM | 
12 | 10 nM | 3800 nM | O=C[C@H](CC(=O)O)NC(=O)CN1C(=O)[C@@H](NC(=O)c2ccc3c(c2)OCO3)CN(C(=O)CO)c2ccccc21 [Compound 910] | 3400 nM | 
13 | 9 nM | 1900 nM | CC(=O)Nc1ccc(C(=O)N[C@H]2CN(C(=O)CO)c3ccccc3N(CC(=O)N[C@H](C=O)CC(=O)O)C2=O)cc1 [Compound 911] | 3500 nM | 
14 | 10 nM | 3800 nM | COc1ccc(C(=O)N[C@H]2CN(C(=O)CO)c3ccccc3N(CC(=O)N[C@H](C=O)CC(=O)O)C2=O)cc1 [Compound 912] | 4200 nM | 
15 | 4.5 nM | 7000 nM | CN(C)c1ccc(C(=O)N[C@H]2CN(C(=O)CO)c3ccccc3N(CC(=O)N[C@H](C=O)CC(=O)O)C2=O)cc1 [Compound 913] | 2400 nM | 
16 | 5.2 nM | 2800 nM | CC(=O)Nc1ccc(C(=O)N[C@H]2CN(C(=O)CO)c3ccccc3N(CC(=O)N[C@H](C=O)CC(=O)O)C2=O)cc1Cl [Compound 914] | 2600 nM | 
17 | 11.5 nM | 1900 nM | CC(=O)Nc1c(Cl)cc(C(=O)N[C@H]2CN(C(=O)CO)c3ccccc3N(CC(=O)N[C@H](C=O)CC(=O)O)C2=O)cc1Cl [Compound 915] | > 8000 nM | 
18 | 4 nM | 4300 nM | O=C[C@H](CC(=O)O)NC(=O)CN1C(=O)[C@@H](NC(=O)c2cc3ccccc3[nH]2)CN(C(=O)CO)c2ccccc21 [Compound 919] | 2000 nM | 
19 | 16 nM | 3000 nM | O=C[C@H](CC(=O)O)NC(=O)CN1C(=O)[C@@H](NC(=O)c2ccc3[nH]cnc3c2)CN(C(=O)CO)c2ccccc21 [Compound 920] | 2100 nM | 
20 | 8.5 nM | 3000 nM | COc1ccccc1C(=O)C(=O)N[C@H]1CN(C(=O)CO)c2ccccc2N(CC(=O)N[C@H](C=O)CC(=O)O)C1=O [Compound 921] | 1800 nM | 
21 | 250 nM | 3000 nM | O=C[C@H](CC(=O)O)NC(=O)[C@@H]1CCCN2C(=O)CCN(NC(=O)CCc3ccccc3)C(=O)N12 [Compound 1105] | 3500 nM | 
22 | 75 nM | 1700 nM | O=C[C@H](CC(=O)O)NC(=O)[C@@H]1CCCN2C(=O)CCN(NC(=O)C(=O)c3ccccc3)C(=O)N12 [Compound 1106] | 4000 nM | 
23 | 22 nM | 2600 nM | O=C[C@H](CC(=O)O)NC(=O)[C@@H]1CCCN2C(=O)CCN(NC(=O)C(=O)c3c[nH]c4ccccc34)C(=O)N12 [Compound 1108] | 1400 nM | 
24 | 18 nM | 4400 nM | COc1ccccc1C(=O)C(=O)NN1CCC(=O)N2CCC[C@@H](C(=O)N[C@H](C=O)CC(=O)O)N2C1=O [Compound 1111] | 6050 nM | 
25 | 3.5 nM | 2300 nM | COc1cccc(OC)c1C(=O)C(=O)NN1CCC(=O)N2CCC[C@@H](C(=O)N[C@H](C=O)CC(=O)O)N2C1=O [Compound 1112] | 1800 nM | 
26 | 35 nM | 1300 nM | Cc1cc(C)c(C(=O)C(=O)NN2CCC(=O)N3CCC[C@@H](C(=O)N[C@H](C=O)CC(=O)O)N3C2=O)c(C)c1 [Compound 1117] | 1700 nM | 
27 | 55 nM | 9000 nM | COc1c(Cl)cc(C(=O)NN2CCC(=O)N3CCC[C@@H](C(=O)N[C@H](C=O)CC(=O)O)N3C2=O)cc1Cl [Compound 1125] | 2300 nM | 
28 |  |  | CCOC(=O)C[C@@H](C=O)NC(=O)[C@@H]1CCCN2C(=O)CC[C@H](NC(=O)c3ccccc3)C(=O)N12 [Compound 2100i, [3S(1S,9S)]3-(9-Benzoylamino-6,10-dioxo-1,2,3,4,7,8,9,10-octahydro-6H-pyridazino[1,2-a][1,2]diazepine-1-carboxamido)-4-oxobutanoic acid ethyl ester] |  | inhibition at 50 mg/kg [1, 3]: 74%; inhibition at 50 mg/kg [1, 4]: 19%
